Results published in ChEMBL document CHEMBL5385918, “Aculeatiols A-G: Lovastatin Derivatives Extracted from Aspergillus aculeatus” (2024).
The source made the active and inactive calls. The calls are words filed in the database; no cut-off is given here.

How the values were obtained:
[1] = system: HepG2; test: Anti-lipid accumulation activity in human HepG2 cells assessed as reduction in FFA-induced intracellular lipid level pretreated with compound for 48 hrs followed by FFA addition and measured after 48 hrs; assay type: functional, cell-based; details: time 96.0 hrs
[2] = system: HepG2; test: Anti-lipid accumulation activity in human HepG2 cells assessed as reduction in FFA-induced intracellular lipid level at 10 uM pretreated with compound for 48 hrs followed by FFA addition and measured after 48 hrs; assay type: functional; design: scale not given: the % may be the effect or the level left; details: time 96 hrs
[3] = system: HepG2; test: Anti-lipid accumulation activity in human HepG2 cells assessed as reduction in FFA-induced number of lipid droplets at 5 to 10 uM pretreated with compound for 24 hrs followed by FFA addition and measured after 48 hrs by oil red O staining based analysis; assay type: functional, cell-based; details: dose 5-10 µM, time 72.0 hrs
[4] = system: HepG2; test: Anti-lipid accumulation activity in human HepG2 cells assessed as reduction in FFA-induced intracellular triglyceride content incubated for 24 hrs; assay type: functional, cell-based; details: dose 5-10 µM
[5] = system: HepG2; test: Downregulation of FATP2 mRNA expression in FFA-induced human HepG2 cells at 5 to 10 uM pretreated with compound for 24 hrs followed by FFA-induction and measured after 24 hrs by qRT-PCR analysis; assay type: functional, cell-based; details: dose 5-10 µM, time 48.0 hrs
[6] = system: HepG2; test: Downregulation of FATP5 mRNA expression in FFA-induced human HepG2 cells at 5 to 10 uM pretreated with compound for 24 hrs followed by FFA-induction and measured after 24 hrs by qRT-PCR analysis; assay type: functional, cell-based; details: dose 5-10 µM, time 48.0 hrs
[7] = system: HepG2; test: Downregulation of FAS mRNA expression in FFA-induced human HepG2 cells at 5 to 10 uM pretreated with compound for 24 hrs followed by FFA-induction and measured after 24 hrs by qRT-PCR analysis; assay type: functional, cell-based; details: dose 5-10 µM, time 48.0 hrs
[8] = system: HepG2; test: Downregulation of SCD1 mRNA expression in FFA-induced human HepG2 cells at 5 to 10 uM pretreated with compound for 24 hrs followed by FFA-induction and measured after 24 hrs by qRT-PCR analysis; assay type: functional, cell-based; details: dose 5-10 µM, time 48.0 hrs
[9] = system: HepG2; test: Upregulation of PPARalpha mRNA expression in FFA-induced human HepG2 cells at 5 to 10 uM pretreated with compound for 24 hrs followed by FFA-induction and measured after 24 hrs by qRT-PCR analysis; assay type: functional, cell-based; details: dose 5-10 µM, time 48.0 hrs
[10] = system: HepG2; test: Upregulation of ACOX1 mRNA expression in FFA-induced human HepG2 cells at 5 to 10 uM pretreated with compound for 24 hrs followed by FFA-induction and measured after 24 hrs by qRT-PCR analysis; assay type: functional, cell-based; details: dose 5-10 µM, time 48.0 hrs

| Structure (SMILES) | Activity [1] | also measured |
| --- | --- | --- |
| C/C(=C\[C@H](O)[C@H](O)[C@H](O)[C@H](O)[C@@H]1[C@@H]2[C@@H](CC(=O)[C@@H]1C)C[C@@H](C)C[C@H]2O)C(=O)O | Active |  |
| C=C(C)CC(=O)O[C@@H]1C[C@H](C)C[C@@H]2CC(=O)[C@@H](C)[C@H]([C@@H]3O[C@H]3[C@H](O)[C@@H]3C=C(C)C(=O)O3)[C@H]21 | Active |  |
| C=C(C)CC(=O)O[C@@H]1C[C@H](C)C[C@@H]2CC(=O)[C@@H](C)[C@H]([C@@H]3O[C@H]3[C@H](O)[C@H]3C=C(C)C(=O)O3)[C@H]21 | Active |  |
| C[C@H]1C[C@H](O)[C@H]2[C@@H](C=C[C@@](C)(O)[C@]2(C)C(=O)CCO)C1 | Active |  |
| C[C@@H]1C=C2C=C[C@]3(C)OCCC(=O)[C@]3(C)[C@H]2[C@@H](O)C1 | Active |  |
| C[C@@H]1C=C2C=CC3OCCC(=O)[C@]3(C)[C@H]2[C@@H](O)[C@H]1O (some centres undefined) | Active |  |
| C=C(C)CC(=O)O[C@@H]1C[C@H](C)C[C@@H]2CC(=O)[C@@H](C)[C@H]([C@@H]3O[C@H]3[C@@H](O)[C@H]3C=C(C)C(=O)O3)[C@H]21 | Active |  |
| C[C@@H]1C=C2C=C[C@]3(CO)OCCC(=O)[C@]3(C)[C@H]2[C@@H](O)C1 | Active |  |
| Cc1ccc2c(c1)[C@H]1O[C@]3(O)CCO[C@](C)([C@H]1O)[C@]23C | Active |  |
| C\C(=C/C=C/C=C/[C@H]1[C@@H](C)[C@H](O)[C@@H](O)[C@H]2C[C@@H](C)C[C@@H](C)[C@H]12)C(=O)O | Active | Activity [2]: 50%; Activity [3]: Active; Activity [4]: Dose-Dependent Effect; Activity [5]: Active; Activity [6]: Active; Activity [7]: Active; Activity [8]: Active; Activity [9]: Active; Activity [10]: Active |
